Assay results from paper PMC12292390, “Discovery of Dietary Plant Flavonols as Novel Potent Inhibitors Targeting DYRK1A Kinase” (Biomolecules, 2025).
“Also recorded” adds a separate entry of the source. Where two headings read alike, the source gives them in different places.

Columns and labels:
HeLa cells [1] = assay: Cell morphology analysis (microscopy); type: cell-based; details: 72 h
Procedure: (§1) HeLa cells were maintained in high-glucose Dulbecco’s Modified Eagle Medium (DMEM) supplemented with 10% (v/v) fetal bovine serum (FBS) at 37 °C in an incubator with 5% CO2.
HeLa cells were seeded at a density of 1.5 × 10^5 per well in 6-well plates and incubated overnight. Cells were then treated with different concentrations of flavonoids for 72 h. The final concentrations of methanol and DMSO were 4% and 1%, respectively. Morphology changes were observed using an Olympus IX83 (Evident Scientific, Tokyo, Japan) inverted microscope with a 40× objective.

[2] = ref ChemSpider, cited from earlier work; for LogP: ACD/LogP; for HBA (hydrogen bond acceptor number): first figure of HBA/HBD; for PSA: polar surface area; for HBD (hydrogen bond donor number): second figure of HBA/HBD
HeLa cells [3] = assay: Cell viability assay (WST-8); type: cell-based; details: 48 h treatment, WST-8, various concentrations
Procedure: as §1
HeLa cells were seeded at a density of 3.3 × 10^3 per well in 96-well plates and incubated overnight. Cells were then treated with various concentrations of flavonoids. After 48 h incubation, 10 μL of WST-8 reagent (ab228554, Abcam, Waltham, MA, USA) was added to each well and incubated for 1 h at 37 °C. Absorbance was measured at 460 nm using a microtiter plate reader (SpectraMax iD3, Molecular Devices, LLC., San Jose, CA, USA).

DYRK1A = molecular target: T1, DYRK1A (Homo sapiens, UniProt Q13627); assay: DYRK1A kinase inhibition assay (ADP-Glo Kinase Assay, DYRKtide substrate); type: biochemical; details: for DYRK1A inhibition (in words): at the concentrations tested;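 for all read-outs here: DYRKtide phosphorylation read out by luminescence, reaction run in Tris buffer pH 7.5 with MgCl2 and BSA, containing 1% DMSO or methanol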
T1 construct: The DNA encoding DYRK1A with a non-cleavable N-terminal MBP-tag was synthesized by Genscript; made in house; host or cells: E. coli BL21 (DE3) RIPL

[4] = ADP-Glo, 100 μM ATP, 1 mg/mL DYRKtide, 30 nM DYRK1A, 1 h room temperature, read-out: IC50

| Structure (SMILES) | morphological changes in HeLa cells (HeLa cells [1]; 100 μM, 1% DMSO) | LogP [2] | HBA (hydrogen bond acceptor number) [2] | PSA [2] [Å^2] | HBD (hydrogen bond donor number) [2] | cytotoxicity / cell viability of HeLa cells (in words) (HeLa cells [3]) | IC50 (DYRK1A; [4]) [nM] | DYRK1A inhibition (in words) (DYRK1A) | morphological changes in HeLa cells (HeLa cells [1]; 40 μM, 4% methanol) | DYRK1A inhibition (in words) (DYRK1A; listed as kaempferide) | cytotoxicity / cell viability of HeLa cells (in words) (HeLa cells [3]; listed as fisetin) | DYRK1A inhibition (in words) (DYRK1A; listed as apigenin) | IC50 (DYRK1A) [nM] |
| --- | --- | --- | --- | --- | --- | --- | --- | --- | --- | --- | --- | --- | --- |
| O=c1c(O)c(-c2ccc(O)cc2)oc2cc(O)cc(O)c12 [Kaempferol, 3,5,7,4′-tetrahydroxyflavone] | significant elongation and shrinkage; also recorded: elongated morphology | 2.05 | 6 | 107 | 4 | significant cytotoxicity; also recorded: significantly reduced; also recorded: significant cytotoxic and pro-apoptotic effects | 296 | moderate activity | – | – | – | – | – |
| O=c1c(O)c(-c2ccc(O)cc2O)oc2cc(O)cc(O)c12 [Morin] | – | 1.61 | 7 | 127 | 5 | slight cytotoxicity effect; also recorded: significantly reduced | 478 | – | clear apoptotic features, including cell shrinkage, detachment, and the formation of apoptosis bodies; also recorded: classic apoptosis features | – | – | – | – |
| COc1ccc(-c2oc3cc(O)cc(O)c3c(=O)c2O)cc1 [Kaempferide] | – | 2.74 | 6 | 96 | 3 | – | 3520 | effective inhibition | – | only weak inhibition; also recorded: low inhibition of kinase | – | – | – |
| O=C1C[C@@H](c2ccc(O)cc2)Oc2cc(O)cc(O)c21 [Naringenin] | – | 3.19 | 5 | 87 | 3 | – | – | only weak inhibition | – | – | – | – | – |
| O=c1c(O)c(-c2ccccc2)oc2cc(O)ccc12 [3,7-Dihydroxyflavone] | – | 3.27 | 4 | 67 | 2 | – | – | only weak inhibition; also recorded: low inhibition of kinase | – | – | – | – | – |
| O=c1c(O)c(-c2ccc(O)c(O)c2)oc2cc(O)cc(O)c12 [Quercetin, reference compound] | – | 2.08 | 7 | 127 | 5 | – | 738 | – | – | – | – | – | – |
| O=c1c(O)c(-c2ccc(O)c(O)c2)oc2cc(O)ccc12 [Fisetin] | – | 2.52 | 6 | 107 | 4 | slight cytotoxicity effect | 149 | – | clear apoptotic features, including cell shrinkage, detachment, and the formation of apoptosis bodies; also recorded: classic apoptosis features | – | significantly reduced | – | – |
| O=c1c(O)c(-c2ccccc2)oc2ccccc12 [3-Hydroxyflavone] | – | 3.76 | 3 | 47 | 1 | – | – | no detectable activity; also recorded: low inhibition of kinase | – | – | – | – | – |
| O=c1c(O)c(-c2ccccc2)oc2ccc(O)cc12 [3,6-Dihydroxyflavone] | – | 3.64 | 4 | 67 | 2 | – | – | only weak inhibition; also recorded: low inhibition of kinase | – | – | – | – | – |
| O=C1c2c(O)cc(O)cc2O[C@H](c2cc(O)c(O)c(O)c2)[C@H]1O [Dihydromyricetin] | – | 1.23 | 8 | 148 | 6 | – | – | no detectable activity; also recorded: lack of activity | – | – | – | – | – |
| O=c1cc(-c2ccc(O)c(O)c2)oc2cc(O)cc(O)c12 [Luteolin] | – | 2.40 | 6 | 107 | 4 | – | 798 | – | – | – | – | – | – |
| O=c1cc(-c2ccc(O)cc2)oc2cc(O)cc(O)c12 [Apigenin] | – | 3.04 | 5 | 87 | 3 | – | 1020 | effective inhibition | – | – | – | only weak inhibition | – |
| COc1cc(-c2oc3cc(O)cc(O)c3c(=O)c2O)ccc1O [Isorhamnetin] | – | 1.76 | 7 | 116 | 4 | minimal cytotoxicity | – | moderate activity | clear apoptotic features, including cell shrinkage, detachment, and the formation of apoptosis bodies; also recorded: classic apoptosis features | – | – | – | 418 |
| O=c1c(O)c(-c2cc(O)c(O)c(O)c2)oc2cc(O)cc(O)c12 [Myricetin] | – | 2.11 | 8 | 148 | 6 | – | 633 | – | – | – | – | – | – |
